Results reported in US20110092524A1, “Agent for Enhancing Corneal Epithelial Barrier Function” (SANTEN PHARMACEUTICAL CO., LTD., priority 2008, published 2011).
Read-outs that look alike come from different tables or passages of the source.

Assays:
[1] = tested on: SV40-immortalized human corneal epithelial cells (HCE-T); assay: Enhancing effect of PPARγ agonist on barrier function (membrane electrical resistance of corneal epithelial cell layer); assay type: cell-based; details: for Membrane electrical resistance: five days after seeding, average of four experiments, base culture 296.0
Method: The PPARγ agonist was evaluated with respect to the enhancing effect on the barrier function of a corneal epithelial cell. For the corneal epithelial cell, an SV40-immortalized human corneal epithelial cell line was used, utilizing a membrane electrical resistance as an index of the barrier function. When the bather function of the corneal epithelial cell is enhanced, the membrane electrical resistance increases, while the bather function is reduced, the membrane electrical resistance decreases.
From RIKEN BioResource Center, SV40-immortalized human corneal epithelial cells (HCE-T) were obtained. […] As the culture medium, a DMEM/Ham's F12 (Nacalai Tesque, Inc.) containing 15% fetal bovine serum (ICN) and 40 μg/mL of gentamicin (Gibco) was used. […] The concentration mentioned above was attained by dissolving each sample in DMSO and diluting 1,000-fold with the culture medium. In addition, a culture medium containing DMSO alone was used as a base culture medium.
(§1) Five days after the seeding, an electrical resistance of an epithelial cell layer was measured using a membrane electrical resistance measurement system (World Precision Instruments). A well containing the base medium alone with no corneal epithelial cell seeded was measured as a blank, and the value was subtracted from the electrical resistance of the epithelial cell layer. The resultant value was multiplied by an area of the cell culture (0.33 cm^2), to thereby obtain an electrical resistance (Ω·cm^2) per unit area.

[2] = tested on: SV40-immortalized human corneal epithelial cells (HCE-T); assay: Influence of PPARγ antagonist on barrier function enhancing effect of PPARγ agonist (membrane electrical resistance); assay type: cell-based; details: for Membrane electrical resistance: five days after seeding, average of four experiments, base culture 434.1
Method: An influence of the PPARγ antagonist was evaluated with respect to the barrier function enhancing effect of the PPARγ agonist, and it was examined whether or not the enhancing effect on the barrier function is based on the activity of the PPARγ agonist.
From RIKEN BioResource Center, SV40-immortalized human corneal epithelial cells (HCE-T) were obtained. On a culture insert of 24-well Transwell Clear (Corning Incorporated) were seeded 6.4×10^4 cells of HCE-T, and incubated at 37° C. in 5% CO2. As the culture medium, a DMEM/Ham's F12 (Nacalai Tesque, Inc.) containing 15% fetal bovine serum (ICN) and 40 μg/mL of gentamicin (Gibco) was used. The culture medium was removed after 9 hours, 2 days, 3 days and 4 days, and replaced with a culture medium containing the PPARγ agonist and the PPARγ antagonist to thereby obtain samples. As the PPARγ agonist, rivoglitazone [0.1 μM] was used, and as the PPARγ antagonist, 2-chloro-5-nitrobenzanilide (GW-9662) [0.03 μM, 0.1 μM] was used. The concentrations mentioned above were attained by dissolving each sample in DMSO and diluting 1,000-fold with the culture medium. In addition, a culture containing DMSO alone was used as a base culture medium.
as §1, with “obtaining” for “obtain”

CN(CCOc1ccc(CC2SC(=O)NC2=O)cc1)c1ccccn1 (centres unmarked) [Rosiglitazone, 5-[p-[2-(methyl-2-pyridylamino)ethoxy]benzyl]-2,4-thiazolidinedione]
Membrane electrical resistance ([1]; sample 10 μM, HCE-T): 343.2 Ω · cm^2

CCc1ccc(CCOc2ccc(CC3SC(=O)NC3=O)cc2)nc1 (centres unmarked) [Pioglitazone, 5-[[4-[2-(5-ethyl-2-pyridinyl)ethoxy]phenyl]methyl]-2,4-thiazolidinedione]
Membrane electrical resistance ([1]; sample 10 μM, HCE-T): 350.3 Ω · cm^2

C/C(=C/C(=O)c1ccccc1)N[C@@H](Cc1ccc(OCCc2nc(-c3ccccc3)oc2C)cc1)C(=O)O [GW-544, N-[1-methyl-3-oxo-3-phenyl-1(Z)-propenyl]-O-[2-(5-methyl-2-phenyloxazol-4-yl)ethyl]-L-tyrosine]
barrier function enhancing effect (in words) [1]: excellent barrier function enhancing effect

COc1ccc2nc(COc3ccc(CC4SC(=O)NC4=O)cc3)n(C)c2c1 (centres unmarked) [Rivoglitazone, 5-[4-(6-methoxy-1-methyl-1H-benzimidazol-2-ylmethoxy)benzyl]thiazolidine-2,4-dione]
barrier function enhancing effect (in words) ([1]; sample 10 μM, HCE-T, compared with base culture medium): extremely strong barrier function enhancing effect | Membrane electrical resistance ([1]; sample 10 μM, HCE-T): 615.9 Ω · cm^2 | Membrane electrical resistance ([2]; rivoglitazone 0.1 μM alone): 538.8 Ω · cm^2 | Membrane electrical resistance ([2]; rivoglitazone 0.1 μM and GW-9662 0.03 μM): 473.5 Ω · cm^2 | Membrane electrical resistance ([2]; rivoglitazone 0.1 μM and GW-9662 0.1 μM): 429.3 Ω · cm^2

COc1ccc(OC(=O)N(CC(=O)O)Cc2ccc(OCCc3nc(-c4ccccc4)oc3C)cc2)cc1 [BMS-298585, N-[(4-methoxyphenoxy)carbonyl]-N-[[4-[2-(5-methyl-2-phenyl-4-oxazolyl)ethoxy]phenyl]methyl]glycine]
barrier function enhancing effect (in words) [1]: excellent barrier function enhancing effect

O=C(Nc1ccccc1)c1cc([N+](=O)[O-])ccc1Cl [GW-9662, 2-chloro-5-nitrobenzanilide]
antagonism of the barrier function enhanced by rivoglitazone (in words) ([2]; GW-9662 0.03 μM and 0.1 μM with rivoglitazone 0.1 μM): concentration-dependently reduced | antagonism of the barrier function enhanced by rivoglitazone (in words) ([2]; GW-9662 at 0.1 μM with rivoglitazone 0.1 μM): completely antagonized
